Source: patent EP1808169B1, “Polyhydroxylated aromatic compounds for the treatment of amyloidosis and alpha-synuclein fibril diseases” (priority 1999, dated 2001)

Experiments:
Aβ 1-40 amyloid fibrils = assay: Thioflavin T fluorometry: dose-dependent disassembly/disruption of pre-formed Aβ 1-40 fibrils; assay type: biochemical; settings: 25 µM pre-fibrillized Aβ 1-40, overnight (~18 hours) at 37°C
Description: A previously described method of measuring amyloid fibril formation utilizing Thioflavin T fluorometry (H Naiki et al., Lab. Invest. 65:104-110, 1991; H Levine III, Protein Sci. 2:404-410, 1993; H Levine III, Amyloid: Int. J. Exp. Clin. Invest. 2:1-6, 1995; H Naiki and K. Nakakuki, Lab. Invest. 74:374-383, 1996) was employed to identify potential therapeutic compounds capable of causing a disassembly/disruption of Alzheimer's Aβ 1-42 amyloid fibrils. Thioflavin T is known to bind to fibrillar amyloid proteins, and an increase in fluorescence correlates with an increase in amyloid fibril formation, whereas a decrease in fluorescence correlates with a decrease in amyloid fibrils due to disassembly and/or disruption. The Alzheimer's Aβ protein (1-42) when placed in solution, such as distilled water, tends to spontaneously form amyloid fibrils. Using this sensitive assay, any decreases or increases in fluorescence was previously shown to correlate with a decrease or increase in the amount of amyloid fibrils (see the documents cited above), allowing one to identify and quantitate the extent of potential inhibitors and/or enhancers of Alzheimer's Aβ 1-42 amyloid fibrils.
(§1) To assess the effects of each compound on potential disassembly/ disruption of preformed Aβ 1-42 fibrils, 50 µl of Aβ 1-42 with or without test compounds (described above) were added to 1.2 ml of 100µM Thioflavin T (Sigma) in 50mM NaH2PO4 (pH 6.0) for fluorometry readings. […] Fluorescence emission at 482 nm was measured on a Turner instrument-model 450 fluorometer at an excitation wavelength of 450 nm. For each determination, the fluorometer was calibrated by zeroing in the presence of the Thioflavin T reagent alone, and by setting the 50 ng/ml riboflavin (Sigma Chemical Co., St. Louis, MO) in the Thioflavin T reagent to 1800 fluorescence units. All fluorescence determinations were based on these references and any fluorescence given off by any of the compounds in the presence of the Thioflavin T reagent was always subtracted from all pertinent readings.
(§2) For all fibrillogenesis studies utilizing Thioflavin T fluorometry, as disclosed herein, comparisons of amyloid protein in the presence or absence of test compounds were based on paired Student's t tests with data shown as the mean of triplicate measurements ± standard deviation.
In this study, the potential dose-dependent effects of tannic acid and gallic acid on disassembly/ disruption of pre-formed Aβ 1-40 was assessed. In this experiment, 1 mg of Aβ 1-40 (Bachem Inc., Torrance, CA, USA; Lot # T-20824) was dissolved in 1.0 ml of double distilled water (1 mg/ml solution) and incubated for 4 days at 37°C to spontaneously induce fibril formation. 25 µM of pre-fibrillized Aβ 1-40 was then incubated overnight (~18 hours) at 37°C, in the absence or presence of increasing amounts (25µg/ml, 50µg/ml, 75µg/ml and 100µg/ml) of tannic acid or gallic acid (each in the presence of 150 mM Tris HCl, 10 mM NaCl, pH 7.0, with 0.02% sodium azide). The Aβ:compound weight ratios were therefore 4:1, 2:1, 4:3, and 1:1, respectively, 50 µl aliquots were then added to 1.2 ml of 100µM Thioflavin T (Sigma) in 50mM NaH2PO4 (pH 6.0) for fluorometry readings as described in Example 1 above.

Aβ 1-42 amyloid fibrils = assay: Thioflavin T fluorometry: disassembly/disruption of pre-formed Aβ 1-42 amyloid fibrils; assay type: biochemical; settings: overnight (~18 hours) at 37°C, pH 7.0, mean of triplicate ± standard deviation
Experimental: For the first study, 1 mg of Aβ 1-42 (Bachem Inc., Torrance, CA, USA) was dissolved in 1.0 ml of double distilled water (1 mg/ml solution). 25 µM of Aβ 1-42 was then incubated overnight (~18 hours) at 37°C, in the absence or presence of 100µg/ml of the following compounds: 1) EDTA (Sigma Chemical Company, St. Louis, MO, USA), 2) myricetin (Acros, Somerville, New Jersey, USA), 3) exifone (Acros) 4) pyrogallol (Sigma), 5) tannic acid (Acros), 6) pyrocatechol (Acros), 7) quercetin (Sigma), 8) ellagic acid (Acros), 9) 1,2,4-benzenetriol (Acros), 10) 5-hydroxydopamine (Acros), 11) gallamide hydrate (Acros), 12) gallic acid (Sigma), 13) ethyl gallate (Acros), 14) quinic acid (Acros), 15) propyl gallate (Sigma), and 16) phloroglucide (Acros), each in the presence of 150 mM Tris HCl, 10 mM NaCl (pH 7.0) with 0.02% sodium azide. In this study, the Aβ 1-42:compound weight ratio was 1:1.
For the second study, 1 mg of Aβ 1-42 (Bachem) was dissolved in 1.0 ml of double distilled water (1 mg/ml solution). 25 µM of Aβ 1-42 was then incubated overnight (~18 hours) at 37°C, in the absence or presence of 50µg/ml of the following compounds: 1) gallic acid, 2) ethyl gallate, 3) quinic acid, 4) gallamide trihydrate, 5) ellagic acid, 6) propyl gallate, and 7) pyrogallol, each in the presence of 150 mM Tris HCl, 10 mM NaCl (pH 7.0) with 0.02% sodium azide. In this study, the Aβ 1-42:compound weight ratio was 2:1.
Thioflavin T is known to bind to fibrillar amyloid proteins, and an increase in fluorescence correlates with an increase in amyloid fibril formation, whereas a decrease in fluorescence correlates with a decrease in amyloid fibrils due to disassembly and/or disruption. The Alzheimer's Aβ protein (1-42) when placed in solution, such as distilled water, tends to spontaneously form amyloid fibrils. Using this sensitive assay, any decreases or increases in fluorescence was previously shown to correlate with a decrease or increase in the amount of amyloid fibrils (see the documents cited above), allowing one to identify and quantitate the extent of potential inhibitors and/or enhancers of Alzheimer's Aβ 1-42 amyloid fibrils.
as §1, §2

[1] = Aβ:compound w/w ratio 1:1 (100µg/ml compound)
[2] = Aβ:compound w/w ratio 2:1 (50µg/ml compound)
[3] = Aβ:compound w/w ratio 4:1 (25µg/ml compound)
[4] = Aβ:compound w/w ratio 4:3 (75µg/ml compound)

| SMILES | Fluorescence inhibition, %, at the Aβ 1.40:compound w/wratios given (Aβ 1-40 amyloid fibrils; [1]) | Fluorescence inhibition, %, at the Aβ 1.40:compound w/wratios given (Aβ 1-40 amyloid fibrils; [2]) | Fluorescence inhibition, %, at the Aβ 1.40:compound w/wratios given (Aβ 1-40 amyloid fibrils; [3]) | Fluorescence inhibition, %, at the Aβ 1.40:compound w/wratios given (Aβ 1-40 amyloid fibrils; [4]) | Fluorescence inhibition, %, at the Aβ 1-42:compound w/w ratios given (Aβ 1-42 amyloid fibrils; Aβ 1-42:compound w/w ratio 1:1, 25 µM Aβ 1-42, 100µg/ml compound) | Fluorescence inhibition, %, at the Aβ 1-42:compound w/w ratios given (Aβ 1-42 amyloid fibrils; Aβ 1-42:compound w/w ratio 2:1, 25 µM Aβ 1-42, 50µg/ml compound) |
| --- | --- | --- | --- | --- | --- | --- |
| O=C(OC[C@H]1O[C@@H](OC(=O)c2cc(O)c(O)c(OC(=O)c3cc(O)c(O)c(O)c3)c2)[C@H](OC(=O)c2cc(O)c(O)c(OC(=O)c3cc(O)c(O)c(O)c3)c2)[C@@H](OC(=O)c2cc(O)c(O)c(OC(=O)c3cc(O)c(O)c(O)c3)c2)[C@@H]1OC(=O)c1cc(O)c(O)c(OC(=O)c2cc(O)c(O)c(O)c2)c1)c1cc(O)c(O)c(OC(=O)c2cc(O)c(O)c(O)c2)c1 [Tannic acid, tannic acid] | 53 ± 4.2% | 42 ± 2.8% | 31 ± 4.8% | 49 ± 3.7% | 77 ± 1.3% | – |
| O=C(O)c1cc(O)c(O)c(O)c1 [Gallic acid, gallic acid] | 45 ± 4.1% | 22 ± 3.3% | 14 ± 8.2 % | 34 ± 3.6% | – | 44 ± 1.7% |
